Measured values as given in ChEMBL document CHEMBL6074649, “An insight into recent developments in imidazole based heterocyclic compounds as anticancer agents: Synthesis, SARs, and mechanism of actions” (Eur J Med Chem, 2024).

Experiments:
HT-29 [1] = experiment: Antiproliferative activity against human HT-29 cells assessed as reduction in cell viability incubated for 72 hrs by MTT assay; type: functional, cell-based; settings: HT-29, 72 h
A549 [2] = experiment: Antiproliferative activity against human A549 cells assessed as reduction in cell viability incubated for 72 hrs by MTT assay; type: functional, cell-based; settings: A549, 72 h
MCF7 [3] = experiment: Antiproliferative activity against human MCF7 cells assessed as reduction in cell viability incubated for 72 hrs by MTT assay; type: functional, cell-based; settings: MCF7, 72 h
Jurkat = experiment: Antiproliferative activity against human Jurkat cells assessed as reduction in cell viability incubated for 72 hrs by MTT assay; type: functional, cell-based
RS4-11 = experiment: Antiproliferative activity against human RS4-11 cells assessed as reduction in cell viability incubated for 72 hrs by MTT assay; type: functional, cell-based; settings: RS4-11, 72 h
A549 [4] = experiment: Antiproliferative activity against human A549 cells assessed as reduction in cell growth incubated for 24 hrs by MTT assay; type: functional, cell-based; settings: A549, 24 h
MCF7 [5] = experiment: Antiproliferative activity against human MCF7 cells assessed as reduction in cell growth incubated for 24 hrs by MTT assay; type: functional, cell-based; settings: MCF7, 24 h
HepG2 [6] = experiment: Antiproliferative activity against human HepG2 cells assessed as reduction in cell growth incubated for 24 hrs by MTT assay; type: functional, cell-based; settings: HepG2, 24 h
[7] = Antiproliferative activity against human MCF7/MX cells assessed as reduction in cell growth incubated for 24 hrs by MTT assay; type: functional, cell-based
A549 [8] = experiment: Cytotoxicity against human A549 cells; type: functional, cell-based
MCF7 [9] = experiment: Cytotoxicity against human MCF7 cells assessed as reduction in cell growth incubated for 24 hrs by MTT assay; type: functional, cell-based; settings: MCF7, 24 h
HL-60 = experiment: Cytotoxicity against human HL-60 cells assessed as reduction in cell growth incubated for 24 hrs by MTT assay; type: functional, cell-based; settings: HL-60, 24 h
HCT-116 [10] = experiment: Cytotoxicity against human HCT-116 cells assessed as reduction in cell viability incubated for 24 hrs by MTT assay; type: functional, cell-based; settings: HCT-116, 24 h
[11] = Cytotoxicity against HUVEC cells; type: toxicity, cell-based; settings: human
NCI-H460 = experiment: Antiproliferative activity against human NCI-H460 cells assessed as reduction in cell growth by MTT assay; type: functional, cell-based
NCI-H1299 = experiment: Antiproliferative activity against human NCI-H1299 cells assessed as reduction in cell growth by MTT assay; type: functional, cell-based
A549 [12] = experiment: Antiproliferative activity against A549 cells assessed as reduction in cell growth by MTT assay; type: functional, cell-based; settings: Homo sapiens
MCF7 [13] = experiment: Antiproliferative activity against MCF7 cells assessed as reduction in cell growth by MTT assay; type: functional, cell-based; settings: Homo sapiens
[14] = Antiproliferative activity against MRC5 cells assessed as reduction in cell growth by MTT assay; type: toxicity, cell-based; settings: human
[15] = Antiproliferative activity against mouse 4T1-Luc cells; type: functional, cell-based
MDA-MB-231 = experiment: Antiproliferative activity against human MDA_MB-231 cells; type: functional, cell-based
A549 [16] = experiment: Cytotoxicity against human A549 cells assessed as reduction in cell growth; type: functional, cell-based
BXPC-3 = experiment: Antiproliferative activity against human BXPC-3 assessed as reduction in cell growth; type: functional, cell-based
MCF7 [17] = experiment: Cytotoxicity against human MCF7 cells after 24 hrs by MTT assay; type: functional, cell-based; settings: MCF7, 24 h
HepG2 [18] = experiment: Cytotoxicity against human HepG2 cells after 24 hrs by MTT assay; type: functional, cell-based; settings: HepG2, 24 h
HCT-116 [19] = experiment: Cytotoxicity against human HCT-116 cells after 24 hrs by MTT assay; type: functional, cell-based; settings: HCT-116, 24 h
[20] = Cytotoxicity against human MCF-10A cells measured after 24 hrs by MTT assay; type: toxicity, cell-based
A549 [21] = experiment: Antiproliferative activity against human A549 cells assessed as reduction in cell growth by MTT assay; type: functional, cell-based
MCF7 [22] = experiment: Antiproliferative activity against human MCF7 cells assessed as reduction in cell growth by MTT assay; type: functional, cell-based
PANC-1 = experiment: Antiproliferative activity against human PANC-1 cells by MTT assay; type: functional, cell-based
HT-29 [23] = experiment: Antiproliferative activity against human HT-29 cells assessed as reduction in cell growth by MTT assay; type: functional, cell-based
MCF7 [24] = experiment: Anticancer activity against human MCF7 cells; type: functional, cell-based
PC-3 = experiment: Anticancer activity against human PC-3 cells; type: functional, cell-based
DU-145 = experiment: Anticancer activity against human DU-145 cells; type: functional, cell-based
HepG2 [25] = experiment: Anticancer activity against human HepG2 cells; type: functional, cell-based
HepG2 [26] = experiment: Antiproliferative activity against human HepG2 cells; type: functional, cell-based
[27] = Inhibition of TK (unknown origin); set-up: species or system Homo sapiens
DLD-1 = experiment: Anticancer activity against human DLD-1 cells; type: functional, cell-based
SW480 = experiment: Anticancer activity against human SW480 cells; type: functional, cell-based
SNU-C1 = experiment: Anticancer activity against human SNU-C1 cells; type: functional, cell-based
COLO 320 = experiment: Anticancer activity against human COLO 320 cells; type: functional, cell-based
SW837 = experiment: Anticancer activity against human SW837 cells; type: functional, cell-based
RKO = experiment: Anticancer activity against human RKO cells; type: functional, cell-based
HT-29 [28] = experiment: Anticancer activity against human HT-29 cells; type: functional, cell-based
HCT-116 [29] = experiment: Anticancer activity against human HCT-116 cells; type: functional, cell-based

COc1ccc(/C=C\c2cc(OC)c(OC)c(OC)c2)cc1O [COMBRETASTATIN A4]
IC50 (HT-29 [1]): 0.18 µM
IC50 (A549 [2]): 3.1 µM
IC50 (MCF7 [3]): 0.005 µM
IC50 (Jurkat): 0.0008 µM
IC50 (RS4-11): 0.37 µM
IC50 (A549 [4]): 0.86 µM
IC50 (MCF7 [5]): 0.43 µM
IC50 (HepG2 [6]): 0.63 µM
IC50 [7]: 1.49 µM
IC50 (A549 [8]): 0.048 µM
IC50 (MCF7 [9]): 3.57 µM
IC50 (HL-60): 0.77 µM
IC50 (HCT-116 [10]): 2.63 µM
IC50 [11]: 119 µM

S=c1[nH]c(-n2nnc3ccccc32)cn1-c1ccc(Cl)cc1Cl
IC50 (MCF7 [9]): 0.58 µM
IC50 (HL-60): 0.4 µM
IC50 (HCT-116 [10]): 0.24 µM
IC50 [11]: 13.6 µM

CN(C)CCCOc1ccc(-c2nc(-c3ccc([N+](=O)[O-])o3)[nH]c2-c2ccc(OCCCN(C)C)cc2)cc1
IC50 (NCI-H460): 6.95 µM
IC50 (NCI-H1299): < 0.1 µM
IC50 (A549 [12]): 6.71 µM
IC50 (MCF7 [13]): 6.75 µM
IC50 [14]: 7.1 µM

Cc1[nH]c(SCc2ccccc2)nc1Cc1ccccc1
IC50 [15]: 8.03 µM
IC50 (MDA-MB-231): 8.26 µM

COc1ccc2cc([C@H](C)C3=NC(Cc4ccccc4)C(=O)N3/N=C/c3ccc(N(C)C)cc3)ccc2c1 (stereo partly drawn)
IC50 (A549 [16]): 9.4 µM
IC50 (BXPC-3): 18.3 µM

CC(=O)O[C@@]12CO[C@@H]1C[C@H](O)[C@@]1(C)C(=O)[C@H](O)C3=C(C)[C@@H](OC(=O)[C@H](O)[C@@H](NC(=O)OC(C)(C)C)c4ccccc4)C[C@@](O)([C@@H](OC(=O)c4ccccc4)[C@H]21)C3(C)C [DOCETAXEL ANHYDROUS]
IC50 (MCF7 [17]): 11.1 µM
IC50 (HepG2 [18]): 8.13 µM
IC50 (HCT-116 [19]): 14 µM
IC50 at 24 h [20]: 33.2 µM

COc1ccccc1-c1nc(-c2ccccc2)c(-c2ccccc2)n1-c1ccc(S(N)(=O)=O)cc1
IC50 (A549 [21]): 2.4 µM
IC50 (MCF7 [22]): 2.1 µM
IC50 (PANC-1): 2.2 µM
IC50 (HT-29 [23]): 2.4 µM

Cc1nc([N+](=O)[O-])c(N2CCN(CCCBr)CC2)n1Cc1ccccc1
IC50 (MCF7 [24]): 46.2 µM
IC50 (PC-3): 48.6 µM
IC50 (DU-145): 53.7 µM
IC50 (HepG2 [25]): 32.1 µM

CCOC(=O)N1CCN(c2c([N+](=O)[O-])nc(CC)n2CC)CC1
IC50 (MCF7 [24]): 29.6 µM
IC50 (PC-3): 49.6 µM
IC50 (DU-145): 42.2 µM
IC50 (HepG2 [25]): 5.6 µM

CCOC(=O)c1nn(-c2ccc(Cl)cc2)/c(=N\NC2=NC(c3ccccc3)(c3ccccc3)C(=O)N2)s1
IC50 (HepG2 [26]): 0.72 µM

COc1cccc2c1C=C(c1ncc(-c3ccc(OCc4ccccc4)cc3)[nH]1)CO2
IC50 [27]: 4.73 µM
IC50 (DLD-1): 0.37 µM
IC50 (SW480): 0.37 µM
IC50 (SNU-C1): 0.37 µM
IC50 (COLO 320): 0.37 µM
IC50 (SW837): 0.37 µM
IC50 (RKO): 0.37 µM
IC50 (HT-29 [28]): 0.37 µM
IC50 (HCT-116 [29]): 0.37 µM
